Measurements from PubChem BioAssay (NCI).
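Step 1: Grow cells in 96-well plates. Step 2: Expose to compound for 48 hours at 5 concentrations. Step 3: Interpolate endpoints linearly; if unreached, use highest concentration. GI50: concentration for 50% inhibition of growth. TGI denotes the concentration required for complete inhibition of growth.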

How the values were obtained:
Assay in all cases: NCI-60 cell line screen, 48 h
HCT-15 colon = test system: HCT-15 colon
MALME-3M melanoma = test system: MALME-3M melanoma
DU-145 prostate = test system: DU-145 prostate
NCI-H23 lung = test system: NCI-H23 lung
MDA-MB-231 breast = test system: MDA-MB-231 breast
SK-MEL-2 melanoma = test system: SK-MEL-2 melanoma
HS 578T breast = test system: HS 578T breast
HCC-2998 colon = test system: HCC-2998 colon
T-47D breast = test system: T-47D breast
IGROV1 ovarian = test system: IGROV1 ovarian
RPMI-8226 leukemia = test system: RPMI-8226 leukemia
PC-3 prostate = test system: PC-3 prostate
COLO 205 colon = test system: COLO 205 colon
SF-268 CNS = test system: SF-268 CNS
OVCAR-8 ovarian = test system: OVCAR-8 ovarian
HOP-62 NSCLC = test system: HOP-62 NSCLC
BT-549 breast = test system: BT-549 breast
OVCAR-5 ovarian = test system: OVCAR-5 ovarian
SNB-19 CNS = test system: SNB-19 CNS
SN12C renal = test system: SN12C renal
UO-31 renal = test system: UO-31 renal
786-0 renal = test system: 786-0 renal
OVCAR-3 ovarian = test system: OVCAR-3 ovarian
A549 NSCLC = test system: A549 NSCLC
M14 melanoma = test system: M14 melanoma
LOX IMVI melanoma = test system: LOX IMVI melanoma
CAKI-1 renal = test system: CAKI-1 renal
NCI-H522 lung = test system: NCI-H522 lung

`COc1ccc(-c2nc3cc(C)ccc3n2CC(=O)N=Nc2c(O)[nH]c3ccc(OC)cc23)cc1` gave a GI50 (HCT-15 colon) of 2560 nM, a TGI (HCT-15 colon) of 7.51 µM and a GI50 (MALME-3M melanoma) of 1940 nM. For the same compound, the TGI (MALME-3M melanoma) was 3.52 µM, the GI50 (DU-145 prostate) was 3.54 µM and the TGI (DU-145 prostate) was 14.7 µM. It also gave a GI50 (NCI-H23 lung) of 2480 nM, a TGI (NCI-H23 lung) of 6.88 µM and a GI50 (MDA-MB-231 breast) of 2040 nM. The TGI (MDA-MB-231 breast) was 4.68 µM, the GI50 (SK-MEL-2 melanoma) was 5.39 µM and the TGI (SK-MEL-2 melanoma) was 19.7 µM. It also gave a GI50 (HS 578T breast) of 2020 nM, a TGI (HS 578T breast) of 5.15 µM and a GI50 (HCC-2998 colon) of 3.66 µM. For the same compound, the TGI (HCC-2998 colon) was 13.2 µM, the GI50 (T-47D breast) was 2430 nM and the TGI (T-47D breast) was 6.5 µM. The GI50 (IGROV1 ovarian) was 6.83 µM, the TGI (IGROV1 ovarian) was 19.8 µM and the GI50 (RPMI-8226 leukemia) was 3.22 µM. The TGI (RPMI-8226 leukemia) was 14.9 µM, the GI50 (PC-3 prostate) was 2300 nM and the TGI (PC-3 prostate) was 6.65 µM. For the same compound, the GI50 (COLO 205 colon) was 2620 nM, the TGI (COLO 205 colon) was 7.93 µM and the GI50 (SF-268 CNS) was 2430 nM. It also gave a TGI (SF-268 CNS) of 8.3 µM, a GI50 (OVCAR-8 ovarian) of 2300 nM and a TGI (OVCAR-8 ovarian) of 5.89 µM. For the same compound, the GI50 (HOP-62 NSCLC) was 2520 nM, the TGI (HOP-62 NSCLC) was 6.96 µM and the GI50 (BT-549 breast) was 1880 nM. It also gave a TGI (BT-549 breast) of 4.01 µM, a GI50 (OVCAR-5 ovarian) of 2430 nM and a TGI (OVCAR-5 ovarian) of 8.93 µM. The GI50 (SNB-19 CNS) was 4.3 µM, the TGI (SNB-19 CNS) was 16.1 µM and the GI50 (SN12C renal) was 1800 nM. The TGI (SN12C renal) was 4.08 µM, the GI50 (UO-31 renal) was 11.2 µM and the TGI (UO-31 renal) was 23.6 µM. The GI50 (786-0 renal) was 3.37 µM, the TGI (786-0 renal) was 11.7 µM and the GI50 (OVCAR-3 ovarian) was 1870 nM. The TGI (OVCAR-3 ovarian) was 4.39 µM, the GI50 (A549 NSCLC) was 1990 nM and the TGI (A549 NSCLC) was 4.43 µM. The GI50 (M14 melanoma) was 1800 nM, the TGI (M14 melanoma) was 3.38 µM and the GI50 (LOX IMVI melanoma) was 2270 nM. It also gave a TGI (LOX IMVI melanoma) of 5.81 µM, a GI50 (CAKI-1 renal) of 1930 nM and a TGI (CAKI-1 renal) of 5.45 µM. For the same compound, the GI50 (NCI-H522 lung) was 3.71 µM.
